Literature values, collected in patent US12455270B2, “Mesh for dissolution test” (Shionogi & Co., Ltd., priority 2019, dated 2025).

How the values were obtained:
[1] = input parameter of GastroPlus simulation
[2] = input parameter of GastroPlus simulation; remark: listed apart in the source

NC(=O)N1c2ccccc2C=Cc2ccccc21 [Carbamazepine]
logP [1]: 1.8
CL [2]: 0.9087 L/h
Plasma Fup [2]: 28.8%
Vc [2]: 0.6971 L/kg
k12 [2]: 0.165 h⁻¹

Cc1ccc(-c2cc(C(F)(F)F)nn2-c2ccc(S(N)(=O)=O)cc2)cc1 [Celecoxib]
logP [1]: 4.21
CL [2]: 28.558 L/h
Plasma Fup [2]: 2.1%
Vc [2]: 1.0902 L/kg
k12 [2]: 0.1955 h⁻¹
k21 [2]: 0.07268 h⁻¹
